Assay results as given in PubChem BioAssay AID1963850 (Molecular Pharmacology Branch, DTP, NCI, 2024).

Test system: 192522-019-R-J2-PDC complex tumor spheroid viability
Assay: Anticancer human tumor 192522-019-R-J2-PDC patient-derived colon adenocarcinoma cell line growth inhibition [POLQ]
Settings: for IC50: curve of first compound; for viability, T/C: stronger effect = lower value
How it was run: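 PDC + HUVEC + MSC complex spheroids; POLQ inhibitors ± partner drugs; top conc. at/near clinical Cmax, else 10 microM (SN-38 1 microM), half-log dilutions; 37 degrees C, 5% CO2.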
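Note: spheroids exposed to drugs for seven days before reading.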
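Throughout, for viability, T/C: 100% = DMSO vehicle control viability in luminescence.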

In the case of CCc1cc2c(N3CCc4c(cc(Cn5ccnc5)cc4-c4cn(C)nc4C(F)(F)F)C3=O)cc(C)nc2c(OC)n1 + Nc1ccc(C#CCN(C(=O)Cc2ncc(C(F)(F)F)cc2C(F)(F)F)c2ccc(F)cc2)nn1, the IC50 (second compound 0.0316 µM) is reported as greater than 10 µM, the IC50 (second compound 0.1 µM) is reported as greater than 10 µM and the IC50 (second compound 0.316 µM) is reported as greater than 10 µM. It also gave an IC50 (second compound 1 µM) greater than 10 µM, an IC50 (second compound 3.16 µM) greater than 10 µM and an IC50 (second compound 10 µM) greater than 10 µM. The viability, T/C (second compound 0.0316 µM, first compound 0.0316 µM) was 102%, the viability, T/C (second compound 0.0316 µM, first compound 0.1 µM) was 99.6% and the viability, T/C (second compound 0.0316 µM, first compound 0.316 µM) was 88.1%. For the same compound, the viability, T/C (second compound 0.0316 µM, first compound 1 µM) was 73.7%, the viability, T/C (second compound 0.0316 µM, first compound 3.16 µM) was 63.6% and the viability, T/C (second compound 0.0316 µM, first compound 10 µM) was 65.4%. For the same compound, the viability, T/C (second compound 0.1 µM, first compound 0.0316 µM) was 101%, the viability, T/C (second compound 0.1 µM, first compound 0.1 µM) was 93.6% and the viability, T/C (second compound 0.1 µM, first compound 0.316 µM) was 77.1%. For the same compound, the viability, T/C (second compound 0.1 µM, first compound 1 µM) was 76.9%, the viability, T/C (second compound 0.1 µM, first compound 3.16 µM) was 79.5% and the viability, T/C (second compound 0.1 µM, first compound 10 µM) was 73.1%. It also gave a viability, T/C (second compound 0.316 µM, first compound 0.0316 µM) of 105%, a viability, T/C (second compound 0.316 µM, first compound 0.1 µM) of 100% and a viability, T/C (second compound 0.316 µM, first compound 0.316 µM) of 89.4%. For the same compound, the viability, T/C (second compound 0.316 µM, first compound 1 µM) was 75.6%, the viability, T/C (second compound 0.316 µM, first compound 3.16 µM) was 72.8% and the viability, T/C (second compound 0.316 µM, first compound 10 µM) was 73.4%. The viability, T/C (second compound 1 µM, first compound 0.0316 µM) was 103%, the viability, T/C (second compound 1 µM, first compound 0.1 µM) was 94.2% and the viability, T/C (second compound 1 µM, first compound 0.316 µM) was 90.8%. It also gave a viability, T/C (second compound 1 µM, first compound 1 µM) of 76.8%, a viability, T/C (second compound 1 µM, first compound 3.16 µM) of 70.8% and a viability, T/C (second compound 1 µM, first compound 10 µM) of 69.2%. For the same compound, the viability, T/C (second compound 3.16 µM, first compound 0.0316 µM) was 101%, the viability, T/C (second compound 3.16 µM, first compound 0.1 µM) was 95.9% and the viability, T/C (second compound 3.16 µM, first compound 0.316 µM) was 89.7%. For the same compound, the viability, T/C (second compound 3.16 µM, first compound 1 µM) was 81.6%, the viability, T/C (second compound 3.16 µM, first compound 3.16 µM) was 90.6% and the viability, T/C (second compound 3.16 µM, first compound 10 µM) was 81.3%. It also gave a viability, T/C (second compound 10 µM, first compound 0.0316 µM) of 102%, a viability, T/C (second compound 10 µM, first compound 0.1 µM) of 98.7% and a viability, T/C (second compound 10 µM, first compound 0.316 µM) of 89.1%. It also gave a viability, T/C (second compound 10 µM, first compound 1 µM) of 83.4%, a viability, T/C (second compound 10 µM, first compound 3.16 µM) of 92.8% and a viability, T/C (second compound 10 µM, first compound 10 µM) of 81%.
